In series [1] the test system is peripheral blood mononuclear cells (PBMC). The series can be described thus: Cell viability (MTS) assay, PBMC. In kind it is cell-based. Particulars: normal cells (PBMC), at the given concentrations, 24, 48, and 72 hours. On the procedure: Cell viability assay. The cell viability was evaluated via (MTS) assay.
(§1) Cell viability (%)=[ODsample/ODcontrol]×100

The test system of series [2] is HL60 cells. The series is described as follows: Induction of differentiation: gene expression (qRT-PCR) and CD surface markers (flow cytometry), HL60. Particulars: HL60 cell line; confirmed by expression of FLT3, PU1, CEBPA genes and CD3, CD20, CD14, CD33, CD16, CD56 surface markers. It counts as cell-based. The protocol: (§2) Cell culture methods and treatments.
(§3) Flow cytometry. […] In addition, treated cells were incubated with antibody-dye conjugate against CD3, CD20, CD16, CD56, CD14, and CD33 for surface antigen analysis. Thereafter the samples were analyzed by flow cytometer (Attune NxT, Life Technologies-Thermo Fisher Scientific, USA). Treatment with 5 μL H2O2 and 1 μM ATRA were used as the positive controls for apoptosis and necrosis and surface antigen analyses, respectively. Data were analyzed with FlowJo software.
(§4) RNA isolation and qRT-PCR. […] The concentration of extracted RNA was measured via spectrophotometer (EPOCH, BioTek, USA) at 260 nm. The quality of isolated RNA was further evaluated via agarose gel electrophoresis indicating two distinctive bands. Isolated RNA was then converted to cDNA via a commercial kit according to the manufacturer's instructions. The primers were designed with AlleleID software and Primer3 algorithm and then double-checked via the BLAST algorithm. cDNA samples were then prepared for analysis using a commercial kit and analyzed with qRT-PCR machine (Applied Biosystems-Thermo Fisher Scientific, USA).
In general terms: Real-time PCR tracks product formation cycle by cycle.

Series [3] relates to KG1a cells. The series is described as follows: Cell viability (MTS) assay, KG1a. Particulars: for cellular viability (MTS): KG1a cancer cells, at the given concentrations, 24, 48, and 72 hours; for toxicity: KG1a cell line, at a concentration of induction of cellular differentiation (FIGS. 9C, 10C). The protocol:
(§5) Cell culture methods and treatments. HL60 and KG1a cell lines were cultivated in RPMI 1640 (Sigma-USA) culture medium supplemented with 1% penicillin/streptomycin (Gibco-USA), 10% and 20% fetal bovine serum (Gibco-USA) for HL60 and KG1a cell lines, respectively, and 0.5% Glutamax (Gibco-USA) for HL60 cell line. The cells were incubated at 37° C., 5% CO2, and 90% humidity. The stock solution (Mol/L) of HSL-C8, HSL-C12, and A-factor were prepared in 0.1% (v/v) and 0.2% (v/v) and 0.2% (v/v) DMSO, respectively, as a vehicle and stored at −80° C. Different dilutions of HSL-C8, HSL-C12, A-factor, and GBL were prepared from the stock solution, and […] (<4% of the total volume) of each were added to the wells containing 100 μL of cell suspension (10000 and 20000 HL60 and KG1a cells per well). 0.1% and 0.2% DMSO were used as the negative control for HSL-C8, HSL-C12, and A-factor for each test. Culture medium were used as the negative control for GBL.
(§6) Cell viability assay. The cell viability was evaluated via (MTS) assay. HL60, KG1a, and PBMC cells were treated with HSL-C8, HSL-C12, A-factor, and GBL in 96-well plates for 24, 48, and 72 hours. Thereafter, […], of MTS/PMS solution were added to each well and the cells were incubated for 90 minutes. The optical density (OD) of samples was measured via spectrophotometer (EPOCH, BioTek, USA) at 490 nm and the viability of cells was calculated via the following formula:
as §1

The test system of series [4] is HL60 cells. The series is described as follows: Cell viability (MTS) assay, HL60. As to conditions: for cellular viability (MTS): HL60 cancer cells, at the given concentrations, 24, 48, and 72 hours; for toxicity: HL60 cell line, at a concentration of induction of cellular differentiation (FIGS. 9B, 10B). On the procedure:
as §5, §6, §1

Series [5] relates to KG1a cells. The series can be described thus: Induction of differentiation: gene expression (qRT-PCR) and CD surface markers (flow cytometry), KG1a. In kind it is cell-based. As to conditions: KG1a cell line; confirmed by expression of FLT3, PU1, CEBPA genes and CD3, CD20, CD14, CD33, CD16, CD56 surface markers. The protocol:
as §2, §3, §4

Series [6] deals with KG1a cells. The series is described as follows: Apoptosis/necrosis by flow cytometry, Annexin-V-FITC/PI staining, KG1a. It counts as cell-based. The protocol: as §2, §3
(In general: In flow cytometry, cells or beads pass a laser one at a time.)

For series [7], the system named is HL60 cells. The series can be described thus: Apoptosis/necrosis by flow cytometry, Annexin-V-FITC/PI staining, HL60. In kind it is cell-based. As to conditions: for apoptosis (early and late) and necrosis: HL60 cells. The protocol: as §2, §3
For series [8], the system named is KG1a cells. The series can be described thus: Wright-Giemsa staining and light microscopy (morphology), KG1a. In kind it is cell-based. The protocol:
as §2
(§7) Wright-Giemsa staining. HL60 and KG1a cells treated HSL-C8 and HSL-C12 were concentrated and then fixed on the slides with absolute ethanol prior to Wright-Giemsa staining. After staining for four minutes the 1 mL of tap water was added to the slides. After four minutes, they were washed with tap water, air-dried, and evaluated with a light microscopy.

Series [9] concerns HL60 cells. The series can be described thus: Wright-Giemsa staining and light microscopy (morphology), HL60. In kind it is cell-based. The protocol:
as §2, §7

A value given as a limit tells only on which side of the number the result lay.

Consider `CC(C)CCCCC(=O)C1C(=O)OCC1CO` (stereo not drawn) [A-factor, 2-isocapryloyl-3R-hydroxymethyl-gamma-butyrolactone], for which the “cellular viability (MTS)” value in series [1] was “do not decrease the cellular viability of treated cancer cells and normal cells (PBMC) significantly”; in series [3], “do not decrease the cellular viability of treated cancer cells and normal cells (PBMC) significantly”; in [4], “do not decrease the cellular viability of treated cancer cells and normal cells (PBMC) significantly”. The terminal cellular differentiation result in series [2] and in series [5] was “induced terminal cellular differentiation” each time. Further, the toxicity entry in [3] and in series [4] was “minimal toxicity” throughout.

For the molecule `O=C1CCCO1` [GBL, Gamma butyrolactone], the “apoptosis (early and late) and necrosis” value in [6] (KG1a cells, 300 μM of GBL, 48 hours (FIG. 11)) is “minimal to no apoptosis (early and late) and necrosis”; in [7] (300 μM of GBL, 48 hours (FIG. 11)) it was “minimal to no apoptosis (early and late) and necrosis”. Moreover, the “cellular viability (MTS)” value is “do not decrease the cellular viability of treated cancer cells and normal cells (PBMC) significantly” in [1]; “do not decrease the cellular viability of treated cancer cells and normal cells (PBMC) significantly” in series [3]; “do not decrease the cellular viability of treated cancer cells and normal cells (PBMC) significantly” in series [4]. For the same molecule, the terminal cellular differentiation entry in series [2] and in series [5] was “induced terminal cellular differentiation” in each case. The toxicity result in series [3] and in [4] was “minimal toxicity” in each case.

Consider `CCCCCC(=O)CC(=O)N[C@H]1CCOC1=O` [HSL-C8], for which the “change of cell morphology” value was “neutrophil and macrophage-like cells, with lobulated nuclei and expanded cytoplasm” in series [8] (100 μM and 200 μM of HSL-C8, 48 and 72 hours (FIG. 7B)); “neutrophil and macrophage-like cells, with lobulated nuclei and expanded cytoplasm” in series [9] (50 μM and 100 μM of HSL-C8, 48 and 72 hours (FIG. 7A)). The “concentrations that cause minimal to no apoptosis” value in series [6] (human) and in series [7] (human) was ≤ 100 µM throughout. Besides, the “cellular viability (MTS)” value in series [1] was “do not decrease the cellular viability of treated cancer cells and normal cells (PBMC) significantly”; in series [3], “do not decrease the cellular viability of treated cancer cells and normal cells (PBMC) significantly”; in series [4] it was “do not decrease the cellular viability of treated cancer cells and normal cells (PBMC) significantly”. For the same molecule, the terminal cellular differentiation result in series [2] and in series [5] was “induced terminal cellular differentiation” throughout.

In the case of `CCCCCCCCCC(=O)CC(=O)N[C@H]1CCOC1=O` [HSL-C12], the “change of cell morphology” value in [8] (100 μM and 150 μM of HSL-C12, 24 and 48 hours (FIG. 8B)) is “neutrophil and macrophage-like cells, with lobulated nuclei and expanded cytoplasm”; in series [9] (100 μM and 150 μM of HSL-C12, 24 and 48 hours (FIG. 8A)), “neutrophil and macrophage-like cells, with lobulated nuclei and expanded cytoplasm”. For the same molecule, the “apoptosis (early and late) and necrosis” value is “minimal to no apoptosis (early and late) and necrosis” in [6] (KG1a cells, 100 μM of HSL-C12, 24 hours (FIG. 4C)); “minimal to no apoptosis (early and late) and necrosis” in series [6] (KG1a cells, 100 μM of HSL-C12, 48 hours (FIG. 4D)); “moderate apoptosis (early and late) and necrosis” in [6] (KG1a cells, 150 μM of HSL-C12, 48 hours (FIG. 4D)); “minimal to no apoptosis (early and late) and necrosis” in series [7] (50 and 100 μM of HSL-C12, 24 hours (FIG. 4A)); “minimal to no apoptosis (early and late) and necrosis” in series [7] (50 and 100 μM of HSL-C12, 48 hours (FIG. 4B)). Further, the apoptosis and necrosis result in series [6] (KG1a cells, 150 μM of HSL-C12, 24 hours (FIG. 4C)) is “minimal apoptosis and necrosis”. Further, the “cellular viability (MTS)” value in series [1] is “do not decrease the cellular viability of treated cancer cells and normal cells (PBMC) significantly”; in [3], “do not decrease the cellular viability of treated cancer cells and normal cells (PBMC) significantly”; in series [4], “do not decrease the cellular viability of treated cancer cells and normal cells (PBMC) significantly”. For the same molecule, the terminal cellular differentiation entry in series [2] and in [5] was “induced terminal cellular differentiation” throughout.
